# Patent publication US7855200B2, “Method for treatment of gastric ulcers and ulcers induced by aspirin” (Council of Scientific and Industrial Research, priority 2006, dated 2010)
# What was measured:
# Type in all cases: in vivo, albino rats
# [1] = test system: gastric ulcers induced by aspirin, ethanol, stress and pylorus ligation; assay: Antigastric ulcer screening by four different models (statements in words); details: summary statement
# Text: The compounds taken under study for antigastric ulcer screening by four different models were selected using experimental albino rats: • 1. Aspirin induced gastric ulceration • 2. Pylorus ligated gastric ulceration • 3. Ethanol induced gastric ulceration • 4. Stress induced gastric ulceration
# The commercially available drug ranitidine (sigma), Omeprazole (sigma) and sucralfate (Merck) were used as reference standard in experimental models. The Tween-80 (SD fine chemicals) was used as vehicle for the administration of the drug, which is used as control.
# [2] = test system: ethanol induced gastric ulcers; assay: Ethanol induced ulcers; details: rats, ethanol challenge; for Acidity Total mEg / Gastric content / pH: 4 hours after pylorus ligation
# How it was run: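 Rats in groups of 6, fasted 48 h, given Tween 80 (1%) vehicle, reference drugs, or test compounds at 25 mg/kg; lesions induced 1 h after ethanol challenge. Pylorus ligated under ether; 4 h later gastric contents centrifuged and total acid titrated with 0.01N NaOH.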
# [3] = test system: acetyl salicylic acid induced gastric lesions; assay: Acetyl salicylic acid (aspirin) induced gastric ulcer; parameters: Ulcer index Mean(SE): scale not given here; details: rats, aspirin 200 mg/kg
# How it was run: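 Rats in groups of 6 were dosed orally once a day for five days with test compounds suspended in 1% Tween 80. A 1% Tween 80 control group and a ranitidine 50 mg/kg group were included. Aspirin at 200 mg/kg was given orally 30 min after each dose. After a 24 hour fast, the rats were killed by cervical dislocation. Stomachs were opened along the greater curvature, rinsed with lukewarm saline, examined under a dissecting microscope and scored for ulcer index.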
# [4] = 5 mg/kg per orally daily for five days
# [5] = 10 mg/kg per orally daily for five days
# [6] = 15 mg/kg per orally daily for five days
# [7] = 25 mg/kg per orally daily for five days
# [8] = 50 mg/kg per orally daily for five days
compound,measurement,setting,value
"COC(=O)C1OC(Oc2cc3oc(-c4ccccc4)cc(=O)c3cc2OC)C(O)C(O)C1O (stereo not drawn) [OA-5, 3,4,5-trihydroxy-6-(6-methoxy-4-oxo-2-phenyl-4-H-chromen-7-yoloxy) tetrahydro-pyran-2-carboxylicacid methyl ester]",antiulcer activity (in words),[1]; listed as Oroxyloside methyl ester,excellent potent molecule
same,antiulcer activity (in words),[1]; listed as oroxyloside methyl ester,potent activity
same,Inhibition %,[2]; 5 mg/kg,30.01%
same,Ulcer index Mean(SE),[2]; 5 mg/kg,46.66 (±0.80)
same,Acidity Total mEg,[2]; 5 mg/kg,42.66 (±3.95) m Eg
same,Gastric content,[2]; 5 mg/kg,4.0 (±0.45)
same,pH,[2]; 5 mg/kg,3.5 (±0.40)
same,Inhibition %,[2]; 10 mg/kg,35.00%
same,Ulcer index Mean(SE),[2]; 10 mg/kg,43.33 (±5.40)
same,Acidity Total mEg,[2]; 10 mg/kg,31.33 (±1.36) m Eg
same,Gastric content,[2]; 10 mg/kg,4.2 (±0.07)
same,Inhibition %,[2]; 15 mg/kg,60.61%
same,Ulcer index Mean(SE),[2]; 15 mg/kg,26.66 (±4.71)
same,Acidity Total mEg,[2]; 15 mg/kg,29.66 (±1.36) m Eg
same,Gastric content,[2]; 15 mg/kg,4.0 (±0.82)
same,pH,[2]; 15 mg/kg,4.5 (±0.13)
same,Inhibition %,[2]; 25 mg/kg,82.50%
same,Ulcer index Mean(SE),[2]; 25 mg/kg,11.66 (±4.47)
same,Acidity Total mEg,[2]; 25 mg/kg,12.40 (±2.30) mEg
same,Gastric content,[2]; 25 mg/kg,5.5 (±0.30)
same,pH,[2]; 25 mg/kg,6.81 (±0.26)
same,Inhibition %,[2]; 50 mg/kg,85.00%
same,Ulcer index Mean(SE),[2]; 50 mg/kg,10.00 (±6.23)
same,Acidity Total mEg,[2]; 50 mg/kg,18.25 (±7.10) mEg
same,Gastric content,[2]; 50 mg/kg,7.4 (±0.72)
same,pH,[2]; 50 mg/kg,4.95 (±0.43)
same,Inhibition %,[3]; [4],18.75%
same,Ulcer index Mean(SE),[3]; [4],36.66
same,Inhibition %,[3]; [5],40.98%
same,Ulcer index Mean(SE),[3]; [5],26.66
same,Inhibition %,[3]; [6],40.98%
same,Ulcer index Mean(SE),[3]; [6],26.66
same,Inhibition %,[3]; [7],74.55%
same,Ulcer index Mean(SE),[3]; [7],11.06
same,Inhibition %,[3]; [8],77.84%
same,Ulcer index Mean(SE),[3]; [8],10.00
